For series [1], the system named is mice. As to the kind of experiment: In vivo tolerability in mice, intraperitoneal injection.
A short description of series [2]: Zinc binding by EGTA titration. The following applies: EGTA 7.3 mM, PAC-1 derivative 100 μM, Zn(OTf)2 titration, ex. 410 nm, em. 475 nm.
Series [3] is described as follows: Pharmacokinetics in mice, 25 mg/kg IV injection or oral gavage. In kind it is in vivo, mouse. The following applies: 25 mg/kg IV (n = 2).
The subject of series [4] is mice. The following applies: cited from earlier work.
The conditions of series [5]: dogs, cited from earlier work.
Where [6] appears, read: i.p. injection 200 mg/kg, graded mild, moderate, severe, or lethal.

Regarding `CCCc1cc(F)cc(/C=N/NC(=O)CN2CCN(C(=O)c3ccc(F)cc3)CC2)c1O` [Compound 43, N′-(5-Fluoro-2-hydroxy-3-propylphenylmethylene)-4-(4-fluorobenzoyl)-1-piperazineacetohydrazide], the “mouse toxicity IP 200 mg/kg” value in series [1] (setting [6]) was “severe”.

With `C=CCc1cc(F)cc(/C=N/NC(=O)CN2CCN(C(=O)c3ccccc3)CC2)c1O` [Compound 30, N′-[5-Fluoro-2-hydroxy-3-(2-propenyl)phenylmethylene]-4-benzoyl-1-piperazineacetohydrazide], the “mouse toxicity IP 200 mg/kg” value in series [1] (setting [6]) was “moderate”.

Turning to `O=C(CN1CCN(C(=O)c2ccc(C(F)(F)F)cc2)CC1)N/N=C/c1cc(F)ccc1O` [Compound 27, N′-(5-Fluoro-2-hydroxyphenylmethylene)-4-[4-(trifluoromethyl)benzoyl]-1-piperazineacetohydrazide], the “mouse toxicity IP 200 mg/kg” value in series [1] (setting [6]) was “moderate”.

Turning to `C=CCc1cc(F)cc(/C=N/NC(=O)CN2CCN(C(=O)c3ccc(F)cc3)CC2)c1O` [Compound 34, N′-[5-Fluoro-2-hydroxy-3-(2-propenyl)phenylmethylene]-4-(4-fluorobenzoyl)-1-piperazineacetohydrazide], in series [1] (setting [6]), the “mouse toxicity IP 200 mg/kg” value is given as “severe”.

Consider `O=C(CN1CCN(Cc2ccccc2)CC1)N/N=C/c1ccccc1` [PAC-1a], for which the “Zn^2+ Kd” value in series [2] is given as “does not bind zinc”.

On to `C=CCc1cccc(/C=N/NC(=O)CN2CCN(Cc3ccc(S(N)(=O)=O)cc3)CC2)c1O` [S-PAC-1], for which the “time post-treatment up to which compound is detectable in serum” value in series [3] turned out to be 6 h.

Take `C=CCc1cccc(/C=N/NC(=O)CN2CCN(Cc3ccccc3)CC2)c1O` [PAC-1, Procaspase-Activating Compound 1]: the “serum concentration achieved with few adverse events” value in series [4] and in series [5] was “approximately 10 μM” in each case. The maximum tolerated dose in series [4] (intraperitoneal injection) is 200 mg/kg. The in vivo half-life in series [5] (IV administration) was 2.1 ± 0.3 h. Also, the “mouse toxicity IP 200 mg/kg” value in series [1] (mouse, in vivo, ip, 200 mg/kg) is “severe”.

On to `C=CCc1cccc(/C=N/NC(=O)CN2CCN(C(=O)c3ccc(F)cc3)CC2)c1O` [Compound 7, N′-[2-Hydroxy-3-(2-propenyl)phenylmethylene]-4-(4-fluorobenzoyl)-1-piperazineacetohydrazide], for which the “mouse toxicity IP 200 mg/kg” value in series [1] (setting [6]) is “moderate”.

Source of the values: article PMC4520234 (Journal of medicinal chemistry, 2015).
